The record followed here is patent US20030166932A1 (priority 2002, published 2003).

In test [1] the target is T1, RXRγ (UniProt P28705).
T1 sequence (P28705 1-463): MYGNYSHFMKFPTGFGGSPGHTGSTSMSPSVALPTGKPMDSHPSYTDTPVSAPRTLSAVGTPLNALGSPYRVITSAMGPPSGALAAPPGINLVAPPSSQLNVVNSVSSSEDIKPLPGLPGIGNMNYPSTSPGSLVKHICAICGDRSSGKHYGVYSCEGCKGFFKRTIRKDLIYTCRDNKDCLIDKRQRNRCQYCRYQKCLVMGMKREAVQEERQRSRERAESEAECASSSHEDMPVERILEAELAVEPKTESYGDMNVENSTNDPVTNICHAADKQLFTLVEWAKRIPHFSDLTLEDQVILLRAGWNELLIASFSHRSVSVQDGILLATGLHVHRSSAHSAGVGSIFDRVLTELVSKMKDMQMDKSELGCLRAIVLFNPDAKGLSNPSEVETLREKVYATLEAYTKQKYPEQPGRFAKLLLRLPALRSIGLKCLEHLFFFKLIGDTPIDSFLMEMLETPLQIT
In words: ligand binding assay. The following applies: read-out: RXR Bind Ki (nM) Y.

Test [2] deals with T2, RARγ (Homo sapiens, UniProt P13631).
T2 sequence (P13631 1-454): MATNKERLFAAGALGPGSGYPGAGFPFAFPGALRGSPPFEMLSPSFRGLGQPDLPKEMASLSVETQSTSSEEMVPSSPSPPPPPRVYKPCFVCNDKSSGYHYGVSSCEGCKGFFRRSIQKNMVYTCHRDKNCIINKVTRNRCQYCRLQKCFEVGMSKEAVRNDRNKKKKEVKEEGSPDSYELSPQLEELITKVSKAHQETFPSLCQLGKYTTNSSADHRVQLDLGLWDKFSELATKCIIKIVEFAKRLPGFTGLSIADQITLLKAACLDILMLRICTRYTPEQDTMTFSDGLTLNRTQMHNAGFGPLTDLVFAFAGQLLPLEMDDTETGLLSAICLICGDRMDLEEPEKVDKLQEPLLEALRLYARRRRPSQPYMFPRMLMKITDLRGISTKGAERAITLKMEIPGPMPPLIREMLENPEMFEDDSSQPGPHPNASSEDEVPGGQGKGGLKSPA
In words: ligand binding assay. The settings on record: read-out: RAR Bind. Ki (nM) Y.
Source text: (§2) The results obtained in this assay are expressed in EC50 numbers, as they are also in the chimeric receptor transactivation assay. The results of ligand binding assay are expressed in Kd numbers.
(§3) Particularly, the transactivation data pertaining to RAR receptors were obtained in the chimeric assay, and the data pertaining to transactivation of RXR receptors were obtained in the holoreceptor transactivation assay.

For test [3], the target named is T3, RXRα (Homo sapiens, UniProt P19793).
T3 sequence (P19793 1-462): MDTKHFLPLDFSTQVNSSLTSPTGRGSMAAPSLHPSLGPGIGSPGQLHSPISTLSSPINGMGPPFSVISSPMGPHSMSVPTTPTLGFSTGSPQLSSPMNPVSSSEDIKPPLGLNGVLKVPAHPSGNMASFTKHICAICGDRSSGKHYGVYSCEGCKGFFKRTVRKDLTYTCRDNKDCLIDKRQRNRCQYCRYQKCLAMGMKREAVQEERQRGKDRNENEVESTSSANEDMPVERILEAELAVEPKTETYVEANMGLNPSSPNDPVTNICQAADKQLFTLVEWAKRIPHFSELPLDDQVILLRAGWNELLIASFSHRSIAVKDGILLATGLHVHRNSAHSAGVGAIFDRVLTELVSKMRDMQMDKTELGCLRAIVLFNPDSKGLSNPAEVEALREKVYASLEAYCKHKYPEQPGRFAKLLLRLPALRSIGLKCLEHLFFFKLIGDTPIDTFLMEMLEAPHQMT
In words: ligand binding assay.
Source text: as §2, §3

Test [4] addresses T4, RXRβ (UniProt P28704).
T4 sequence (P28704 1-520): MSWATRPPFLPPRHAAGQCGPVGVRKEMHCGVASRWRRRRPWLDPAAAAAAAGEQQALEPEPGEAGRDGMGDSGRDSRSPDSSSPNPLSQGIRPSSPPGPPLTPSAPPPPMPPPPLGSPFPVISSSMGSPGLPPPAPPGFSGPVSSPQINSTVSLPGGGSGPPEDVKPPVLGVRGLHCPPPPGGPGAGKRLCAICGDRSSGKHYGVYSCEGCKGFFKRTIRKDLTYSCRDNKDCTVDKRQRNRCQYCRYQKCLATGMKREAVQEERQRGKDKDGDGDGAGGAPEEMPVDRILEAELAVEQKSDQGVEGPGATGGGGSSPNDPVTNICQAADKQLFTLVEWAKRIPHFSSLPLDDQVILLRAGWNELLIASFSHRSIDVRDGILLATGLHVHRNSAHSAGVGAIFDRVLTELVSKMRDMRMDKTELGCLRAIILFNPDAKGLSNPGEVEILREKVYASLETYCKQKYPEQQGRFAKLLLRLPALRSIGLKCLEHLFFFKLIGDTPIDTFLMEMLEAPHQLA
Put plainly: ligand binding assay. The following applies: read-out: RXR Bind Ki (nM) β.
Source text: as §2, §3

The target in test [5] is T5, RARβ (Homo sapiens, UniProt P10826).
T5 sequence (P10826 154-455): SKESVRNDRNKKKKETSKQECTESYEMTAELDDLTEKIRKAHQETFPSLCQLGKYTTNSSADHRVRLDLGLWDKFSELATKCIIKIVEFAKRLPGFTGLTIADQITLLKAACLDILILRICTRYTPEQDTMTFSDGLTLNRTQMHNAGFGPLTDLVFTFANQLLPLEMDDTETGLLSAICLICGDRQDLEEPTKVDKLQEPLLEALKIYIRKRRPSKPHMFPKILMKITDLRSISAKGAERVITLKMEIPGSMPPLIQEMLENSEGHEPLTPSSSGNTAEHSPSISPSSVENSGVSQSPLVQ
In words: cell-based. The class given is cell-based. The settings on record: for EC50: NA = Not Active, read-out: RAR Trans. EC50 (nM) β; for Emax: relative to 10^−6 M ATRA, read-out: % efficacy, RAR Trans. β. An excerpt:
(§1) The specification of U.S. Pat. No. 5,455,265 is hereby expressly incorporated by reference.

Test [6] addresses T6, RARβ (Homo sapiens, UniProt P10826).
T6 sequence (P10826 1-455): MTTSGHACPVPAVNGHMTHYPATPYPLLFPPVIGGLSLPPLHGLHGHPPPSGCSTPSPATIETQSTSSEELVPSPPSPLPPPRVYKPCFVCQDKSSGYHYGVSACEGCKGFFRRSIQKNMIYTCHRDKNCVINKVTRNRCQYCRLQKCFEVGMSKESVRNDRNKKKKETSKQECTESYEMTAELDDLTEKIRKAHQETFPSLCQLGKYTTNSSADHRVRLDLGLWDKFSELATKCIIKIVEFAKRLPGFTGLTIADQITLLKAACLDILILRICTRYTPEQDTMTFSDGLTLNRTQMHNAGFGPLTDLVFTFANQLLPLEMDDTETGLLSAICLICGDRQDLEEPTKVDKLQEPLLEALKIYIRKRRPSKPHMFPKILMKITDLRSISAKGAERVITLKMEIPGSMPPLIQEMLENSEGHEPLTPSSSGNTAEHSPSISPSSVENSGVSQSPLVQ
Put plainly: ligand binding assay. The following applies: read-out: RAR Bind. Ki (nM) β.
Source text: as §2, §3

Test [7] has as its target T7, RARγ (Homo sapiens, UniProt P13631).
T7 sequence (P13631 156-454): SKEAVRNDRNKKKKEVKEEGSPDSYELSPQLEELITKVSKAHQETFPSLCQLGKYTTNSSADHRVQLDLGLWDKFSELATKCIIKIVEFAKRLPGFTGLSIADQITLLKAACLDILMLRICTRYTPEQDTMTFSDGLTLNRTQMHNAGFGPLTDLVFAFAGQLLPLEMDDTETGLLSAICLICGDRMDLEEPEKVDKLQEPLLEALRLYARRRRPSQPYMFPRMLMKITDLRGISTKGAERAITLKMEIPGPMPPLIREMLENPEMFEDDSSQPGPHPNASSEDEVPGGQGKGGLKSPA
Type of test: cell-based.
Source text: as §1

For test [8], the target named is T3, RXRα. In words: holoreceptor transactivation assay. The settings on record: for Emax: read-out: % efficacy, RXR Trans. α.
Source text: as §2, §3
The target in test [9] is T4, RXRβ. In words: holoreceptor transactivation assay. The following applies: for EC50: NA = Not Active, read-out: RXR Trans. EC50 (nM) β; for % efficacy, RXR Trans. β: relative to 10^−6 M AGN 194204. The class given is cell-based.
Source text: as §2, §3
Test [10] has as its target T1, RXRγ. In words: holoreceptor transactivation assay. The settings on record: for EC50: NA = Not Active, read-out: RXR Trans. EC50 (nM) Y; for % efficacy, RXR Trans. Y: relative to 10^−6 M AGN 194204. The class given is cell-based.
Source text: as §2, §3
A further test addresses T8, RARα (Homo sapiens, UniProt P10276).
T8 sequence (P10276 1-462): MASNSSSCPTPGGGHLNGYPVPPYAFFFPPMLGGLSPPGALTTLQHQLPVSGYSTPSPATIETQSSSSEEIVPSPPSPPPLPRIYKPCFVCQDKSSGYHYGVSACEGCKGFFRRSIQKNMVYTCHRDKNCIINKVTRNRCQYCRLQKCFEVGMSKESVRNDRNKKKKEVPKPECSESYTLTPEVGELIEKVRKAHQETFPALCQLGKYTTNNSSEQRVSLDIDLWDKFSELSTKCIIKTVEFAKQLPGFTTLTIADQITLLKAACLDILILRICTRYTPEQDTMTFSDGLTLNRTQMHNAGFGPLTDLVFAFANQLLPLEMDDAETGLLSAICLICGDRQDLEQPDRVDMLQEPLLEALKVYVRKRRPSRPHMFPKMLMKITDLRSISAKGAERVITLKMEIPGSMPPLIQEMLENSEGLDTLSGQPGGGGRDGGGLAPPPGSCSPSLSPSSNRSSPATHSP
Put plainly: chimeric receptor transactivation assay. Type of test: cell-based.
Source text: as §1

For the molecule `CCCN(c1ccc(C(=O)O)cc1)c1cc2c(cc1OCc1ccccc1)C(C)(C)CC=C2C(C)C` [Compound 157], the Ki on RXRγ [1] was determined as 99 nM; at RARγ [2], 13000 nM; on RXRα [3], 8 nM; at RXRβ [4], 46 nM; on RARβ [6] it was 1200 nM. Further, the EC50 on RARβ [5] was over 1000 nM. The Emax at RARβ [5] was 32%.
On to `C=CCN(c1ccc(C(=O)O)cc1)c1ccc2c(c1)C(C(C)(C)C)=CCC2(C)C` [Compound 90, 4-[(8-t-Butyl-5,5-dimethyl-5,6-dihydronaphthalen-2-yl)(prop-2-en-yl)lamino]-benzoic acid], for which the Ki on RXRγ [1] was 68 nM; on RARγ [2], over 10000 nM; at RXRα [3] it was 39 nM; at RXRβ [4], 84 nM; on RARβ [6] it was over 10000 nM. The EC50 on RARγ [7] (NA = Not Active, read-out: RAR Trans. EC50 (nM) Y) was over 1000 nM; on RARβ [5] it was over 1000 nM; at RXRα [8] it was 12 nM; at RXRβ [9], 76 nM; on RXRγ [10], 12 nM. In addition, the “% efficacy, RAR Trans. Y” value at RARγ [7] (relative to 10^−6 M ATRA) is “(5) %”. Moreover, the figures for the Emax at RARβ [5] and on RXRα [8] were 15% and 112%, respectively. In addition, the “% efficacy, RXR Trans. β” value on RXRβ [9] is recorded as “(110) %”. The “% efficacy, RXR Trans. Y” value at RXRγ [10] was “(102) %”.
Consider `CCN(c1ccc(C(=O)O)cc1)c1cc2c(cc1C)C(C)(C)CC=C2C(C)(C)C` [Compound 26, 4-[Ethyl(8-t-butyl-3,5,5-trimethyl-5,6-dihydronaphthalen-2-yl)amino]benzoic acid], for which the EC50 was determined as 0.5 nM on RARα (NA = Not Active, read-out: RAR Trans. EC50 (nM) α); 0.3 nM at RXRα [8]; 4 nM on RXRβ [9]; 0.5 nM on RXRγ [10]. The Emax on RARα (relative to 10^−6 M ATRA, read-out: % efficacy, RAR Trans. α) came to 10%; on RXRα [8], 85%. Moreover, the Ki on RARγ [2] came to 4000 nM; on RXRα [3] it was 7 nM; on RXRβ [4], 30 nM; at RARβ [6], 1300 nM. For the same molecule, the “% efficacy, RXR Trans. β” value at RXRβ [9] is on record as “(84) %”. Besides, the “% efficacy, RXR Trans. Y” value at RXRγ [10] was “(90) %”.

Broadly, the Ki is a dissociation constant, usually derived from enzyme kinetics or from competition with a known ligand. A word on the EC50: it is the concentration that produces a half-maximal response.
